What was measured:
[1] = test system: Raf-1; test: Relative activity of FIG. 9A-9G compounds; type: cell-based; set-up: key: ++++: most active; −: minimal activity; settings: Table 4
Text: The compounds of FIGS. 9A-9G have been tested for activity with respect to erbB2 (Her2), raf-1 and estrogen receptors.

[2] = test system: ErbB2; test: Immunoblotting of LN-CAP cells exposed to GM or GM-T (Example 2); type: cell-based; settings: immunoblotting over time, geldanamycin at 0.25 and 1 ug/ml, FIG. 8A
[3] = test system: ErbB2; test: Immunoblotting for receptor presence in MCF-7 cells exposed to compound; type: cell-based; set-up: key: +: the receptor was detected by immunoblotting; −: it was not detectable; ±: a weak or equivocal result
[4] = test system: Raf-1; test: as above; type: cell-based; set-up: key: +: the receptor was detected by immunoblotting; −: it was not detectable; ±: a weak or equivocal result
[5] = biological target: T1, estrogen receptor (Homo sapiens, UniProt P03372); test: as above; type: cell-based
T1 construct: testing for the presence of the receptor using receptor-specific antibodies in an immunoblotting experiment; endogenous in cells; host or cells: MCF-7
T1 sequence (P03372 whole entry): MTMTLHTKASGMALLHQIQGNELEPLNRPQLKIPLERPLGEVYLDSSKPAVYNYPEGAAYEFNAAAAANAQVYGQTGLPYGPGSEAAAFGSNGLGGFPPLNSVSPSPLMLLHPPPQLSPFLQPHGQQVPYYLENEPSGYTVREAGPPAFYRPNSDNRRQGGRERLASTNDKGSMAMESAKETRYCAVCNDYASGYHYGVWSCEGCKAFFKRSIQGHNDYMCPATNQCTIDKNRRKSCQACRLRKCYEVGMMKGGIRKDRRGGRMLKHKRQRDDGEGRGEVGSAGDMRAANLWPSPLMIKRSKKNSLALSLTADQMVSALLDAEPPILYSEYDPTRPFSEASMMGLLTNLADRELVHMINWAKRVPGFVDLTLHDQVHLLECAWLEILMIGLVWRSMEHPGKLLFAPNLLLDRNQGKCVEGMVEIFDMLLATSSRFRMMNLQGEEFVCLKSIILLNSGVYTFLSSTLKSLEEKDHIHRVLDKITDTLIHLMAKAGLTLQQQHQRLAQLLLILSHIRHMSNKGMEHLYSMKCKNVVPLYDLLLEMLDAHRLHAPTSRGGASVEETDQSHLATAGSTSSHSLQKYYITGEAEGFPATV
Method: (§1) The effects of these compounds on receptor of various types were evaluated by exposing MCF-7 breast cancer cells, in vitro, to 1 μM levels of the compounds for varying periods of time, and then testing for the presence of the receptor using receptor-specific antibodies in an immunoblotting experiment.

[6] = test system: insulin-like growth factor 1 receptor (IGF1-R); test: as above; type: cell-based; set-up: key to IGFI-R detected by immunoblotting: +: the receptor was detected by immunoblotting; −: it was not detectable; ±: a weak or equivocal result; settings: for IGFI-R detected by immunoblotting: Table 2
[7] = test system: ErbB2; test: Immunoblotting for receptor presence in LNCaP prostate cancer cells; type: cell-based; set-up: key: +: the receptor was detected by immunoblotting; −: it was not detectable; ±: a weak or equivocal result; settings: Table 3
[8] = test system: androgen receptor; test: as above; type: cell-based; set-up: key to androgen receptor detected by immunoblotting: +: the receptor was detected by immunoblotting; −: it was not detectable; ±: a weak or equivocal result; settings: for androgen receptor detected by immunoblotting: Table 3
[9] = biological target: T1, estrogen receptor; test: Relative activity of FIG. 9A-9G compounds; type: cell-based; set-up: key to the marks not given beside the values; settings: Table 4
[10] = test system: estrogen receptors and ErbB2 receptors; test: Selectivity across receptor panel, immunoblotting in MCF-7 cells; type: cell-based; settings: 1 μM
Method: as §1, with “experiment. The results are summarized in Table 1, where GM-4-E2 indicates a geldanamycin-estradiol compound with a 4-carbon tether.” for “experiment.”

[11] = test system: PI3 kinase; test: Inhibition of PI3 kinase activity; type: biochemical; settings: FIG. 12
[12] = MCF-7 cells, 1 μM, exposure time 0 hours, Table 1
[13] = MCF-7 cells, 1 μM, exposure time 3 hours, Table 1
[14] = MCF-7 cells, 1 μM, exposure time 6 hours, Table 1
[15] = MCF-7 cells, 1 μM, exposure time 12 hours, Table 1
[16] = MCF-7 cells, 1 μM, exposure time 24 hours, Table 1
[17] = repeat experiment (Example 5), exposure time 0 hours, Table 2
[18] = repeat experiment (Example 5), exposure time 6 hours, Table 2
[19] = repeat experiment (Example 5), exposure time 12 hours, Table 2
[20] = repeat experiment (Example 5), exposure time 24 hours, Table 2
[21] = Example 5, exposure time 0 hours
[22] = Example 5, exposure time 6 hours
[23] = Example 5, exposure time 12 hours
[24] = Example 5, exposure time 24 hours

Compound: COC1C=CC=C(C)C(=O)NC2=CC(=O)C(NCCCCCCC3(O)CCC4C5CCc6cc(O)ccc6C5CCC43C)=C(CC(C)CC(OC)C(O)C(C)C=C(C)C1OC(N)=O)C2=O (stereo not drawn) [FIG. 9E]
- relative activity, raf-1 [1]: −

Compound: COC1C=CC=C(C)C(=O)NC2=CC(=O)C(NCCCCCCC#CC3(O)CCC4C5CCC6=CC(=O)CCC6(C)C5CCC43C)=C(CC(C)CC(OC)C(O)C(C)C=C(C)C1OC(N)=O)C2=O (stereo not drawn) [GM-T, 17-testosterone-tethered-17-demethoxy-17-GM]
- reduction of levels of ErbB2 [2]: the least reduction was observed

Compound: COC1C=CC=C(C)C(=O)NC2=CC(=O)C(NCC=CCC3CC4C5CCc6cc(O)ccc6C5CCC4(C)C3O)=C(CC(C)CC(OC)C(O)C(C)C=C(C)C1OC(N)=O)C2=O (stereo not drawn) [GM-4-E2]
- ErbB2 detected by immunoblotting [3, 12]: +
- ErbB2 detected by immunoblotting [3, 13]: ±
- ErbB2 detected by immunoblotting [3, 14]: −
- ErbB2 detected by immunoblotting [3, 15]: −
- ErbB2 detected by immunoblotting [3, 16]: −
- ErbB2 detected by immunoblotting [3, 17]: +
- ErbB2 detected by immunoblotting [3, 18]: ±
- ErbB2 detected by immunoblotting [3, 19]: −
- ErbB2 detected by immunoblotting [3, 20]: −
- Raf-1 detected by immunoblotting [4, 12]: +
- Raf-1 detected by immunoblotting [4, 13]: +
- Raf-1 detected by immunoblotting [4, 14]: +
- Raf-1 detected by immunoblotting [4, 15]: +
- Raf-1 detected by immunoblotting [4, 16]: +
- Raf-1 detected by immunoblotting [4, 17]: +
- Raf-1 detected by immunoblotting [4, 18]: +
- Raf-1 detected by immunoblotting [4, 19]: +
- Raf-1 detected by immunoblotting [4, 20]: +
- estrogen receptor detected by immunoblotting [5, 12]: +
- estrogen receptor detected by immunoblotting [5, 13]: ±
- estrogen receptor detected by immunoblotting [5, 14]: −
- estrogen receptor detected by immunoblotting [5, 15]: −
- estrogen receptor detected by immunoblotting [5, 16]: −
- estrogen receptor detected by immunoblotting [5, 17]: +
- estrogen receptor detected by immunoblotting [5, 18]: −
- estrogen receptor detected by immunoblotting [5, 19]: −
- estrogen receptor detected by immunoblotting [5, 20]: −
- IGFI-R detected by immunoblotting [6, 21]: +
- IGFI-R detected by immunoblotting [6, 22]: +
- IGFI-R detected by immunoblotting [6, 23]: +
- IGFI-R detected by immunoblotting [6, 24]: +
- effect on IGF1-R compared with geldanamycin alone ([6]; Example 5, in words): less injurious to IGF1-R than geldanamycin alone
- ErbB2 detected by immunoblotting ([7]; exposure time 0 hours): +
- ErbB2 detected by immunoblotting ([7]; exposure time 3 hours): +
- ErbB2 detected by immunoblotting ([7]; exposure time 6 hours): +
- ErbB2 detected by immunoblotting ([7]; exposure time 12 hours): −
- ErbB2 detected by immunoblotting ([7]; exposure time 24 hours): −
- androgen receptor detected by immunoblotting ([8]; exposure time 0 hours): +
- androgen receptor detected by immunoblotting ([8]; exposure time 3 hours): +
- androgen receptor detected by immunoblotting ([8]; exposure time 6 hours): +
- androgen receptor detected by immunoblotting ([8]; exposure time 12 hours): +
- androgen receptor detected by immunoblotting ([8]; exposure time 24 hours): +
- destruction of androgen receptors ([8]; in words): does not
- relative activity, raf-1 [1]: −
- relative activity, estrogen receptor [9]: ++++
- selectivity for estrogen receptors and ErbB2 receptors compared to geldanamycin alone [10]: most pronounced

Compound: CCCCCCN(C)C=C1C(=O)OC(COC)C2(C)C1=C(O)C(=O)C1=C2C(OC(C)=O)CC2(C)C(=O)CCC12 (stereo not drawn) [E-analog 2]
- inhibition of PI3 kinase activity [11]: inhibits PI3 kinase activity

Compound: COC1C=CC=C(C)C(=O)NC2=CC(=O)C(NCCCCNCCCCCCC3(O)CCC4C5CCc6cc(O)ccc6C5CCC43C)=C(CC(C)CC(OC)C(O)C(C)C=C(C)C1OC(N)=O)C2=O (stereo not drawn) [GM-10-E2]
- ErbB2 detected by immunoblotting [3, 12]: +
- ErbB2 detected by immunoblotting [3, 13]: +
- ErbB2 detected by immunoblotting [3, 14]: +
- ErbB2 detected by immunoblotting [3, 15]: +
- ErbB2 detected by immunoblotting [3, 16]: −
- Raf-1 detected by immunoblotting [4, 12]: +
- Raf-1 detected by immunoblotting [4, 13]: +
- Raf-1 detected by immunoblotting [4, 14]: +
- Raf-1 detected by immunoblotting [4, 15]: +
- Raf-1 detected by immunoblotting [4, 16]: +
- estrogen receptor detected by immunoblotting [5, 12]: +
- estrogen receptor detected by immunoblotting [5, 13]: +
- estrogen receptor detected by immunoblotting [5, 14]: +
- estrogen receptor detected by immunoblotting [5, 15]: ±
- estrogen receptor detected by immunoblotting [5, 16]: +

Compound: CCCCCCNC=C1C(=O)OC(COC)C2(C)C1=C(O)C(=O)C1=C2C(OC(C)=O)CC2(C)C(=O)CCC12 (stereo not drawn) [Z-analog 1]
- inhibition of PI3 kinase activity [11]: inactive

Compound: COC1C=CC=C(C)C(=O)NC2=CC(=O)C(NCCCCCCN(C)CCCCCCC3(O)CCC4C5CCc6cc(O)ccc6C5CCC43C)=C(CC(C)CC(OC)C(O)C(C)C=C(C)C1OC(N)=O)C2=O (stereo not drawn) [FIG. 9G]
- relative activity, raf-1 [1]: −

Compound: COC1C=CC=C(C)C(=O)NC2=CC(=O)C(NCCCCNCCCCCCC3(O)CCC4C5CCc6cc(O)ccc6C5CCC43C)=C(CC(C)CC(OC)C(O)C(C)C=C(C)C1OC(N)=O)C2=O (stereo not drawn) [FIG. 9F]
- relative activity, raf-1 [1]: −

Compound: COC1C=CC=C(C)C(=O)NC2=CC(=O)C(NCCCCCCN(C)CCCCCCC3(O)CCC4C5CCc6cc(O)ccc6C5CCC43C)=C(CC(C)CC(OC)C(O)C(C)C=C(C)C1OC(N)=O)C2=O (stereo not drawn) [GM-13-E2]
- ErbB2 detected by immunoblotting [3, 12]: +
- ErbB2 detected by immunoblotting [3, 13]: +
- ErbB2 detected by immunoblotting [3, 14]: +
- ErbB2 detected by immunoblotting [3, 15]: +
- ErbB2 detected by immunoblotting [3, 16]: −
- Raf-1 detected by immunoblotting [4, 12]: +
- Raf-1 detected by immunoblotting [4, 13]: +
- Raf-1 detected by immunoblotting [4, 14]: +
- Raf-1 detected by immunoblotting [4, 15]: +
- Raf-1 detected by immunoblotting [4, 16]: +
- estrogen receptor detected by immunoblotting [5, 12]: +
- estrogen receptor detected by immunoblotting [5, 13]: +
- estrogen receptor detected by immunoblotting [5, 14]: +
- estrogen receptor detected by immunoblotting [5, 15]: ±
- estrogen receptor detected by immunoblotting [5, 16]: −

Compound: COC1=C2C[C@@H](C)C[C@H](OC)[C@H](O)[C@@H](C)/C=C(\C)[C@H](OC(N)=O)[C@@H](OC)/C=C\C=C(/C)C(=O)NC(=CC1=O)C2=O [GM, geldanamycin, reference compound]
- ErbB2 detected by immunoblotting [3, 12]: +
- ErbB2 detected by immunoblotting [3, 13]: −
- ErbB2 detected by immunoblotting [3, 14]: −
- ErbB2 detected by immunoblotting [3, 15]: −
- ErbB2 detected by immunoblotting [3, 16]: −
- ErbB2 detected by immunoblotting [3, 17]: +
- ErbB2 detected by immunoblotting [3, 18]: −
- ErbB2 detected by immunoblotting [3, 19]: −
- ErbB2 detected by immunoblotting [3, 20]: −
- Raf-1 detected by immunoblotting [4, 12]: +
- Raf-1 detected by immunoblotting [4, 13]: +
- Raf-1 detected by immunoblotting [4, 14]: +
- Raf-1 detected by immunoblotting [4, 15]: −
- Raf-1 detected by immunoblotting [4, 16]: −
- Raf-1 detected by immunoblotting [4, 17]: +
- Raf-1 detected by immunoblotting [4, 18]: +
- Raf-1 detected by immunoblotting [4, 19]: −
- Raf-1 detected by immunoblotting [4, 20]: −
- IGFI-R detected by immunoblotting [6, 21]: +
- IGFI-R detected by immunoblotting [6, 22]: +
- IGFI-R detected by immunoblotting [6, 23]: +
- IGFI-R detected by immunoblotting [6, 24]: −
- ErbB2 detected by immunoblotting ([7]; exposure time 0 hours): +
- ErbB2 detected by immunoblotting ([7]; exposure time 3 hours): +
- ErbB2 detected by immunoblotting ([7]; exposure time 6 hours): −
- ErbB2 detected by immunoblotting ([7]; exposure time 12 hours): −
- ErbB2 detected by immunoblotting ([7]; exposure time 24 hours): −
- androgen receptor detected by immunoblotting ([8]; exposure time 0 hours): +
- androgen receptor detected by immunoblotting ([8]; exposure time 3 hours): +
- androgen receptor detected by immunoblotting ([8]; exposure time 6 hours): +
- androgen receptor detected by immunoblotting ([8]; exposure time 12 hours): +
- androgen receptor detected by immunoblotting ([8]; exposure time 24 hours): −

From patent publication US6670348B1, “Methods and compositions for destruction of selected proteins” (Sloan-Kettering Institute for Cancer Research, priority 1997, dated 2003)
